From ChEMBL document CHEMBL1201862, “PubChem BioAssay data set” (2004)
Calls of active or inactive are those of the source.

Experiments:
Mu-type opioid receptor = Mu-type opioid receptor (Homo sapiens, UniProt P35372); assay: (§1) Counterscreen for agonists of heterodimerization of the mu 1 (OPRM1) and delta 1 (OPRD1) opioid receptors: Luminescence-based cell-based high throughput dose response assay to identify agonists of OPRM1 homodimerization.; format: functional
[1] = biological target: 5-hydroxytryptamine receptor 5A (Homo sapiens, UniProt P47898); assay: Counterscreen for agonists of OPRM1-OPRD1 heterodimerization: luminescence-based cell-based high throughput dose response assay to identify agonists of 5-hydroxytryptamine (serotonin) 5A receptor (HTR5A). [Related pubchem assays (depositor defined):AID504326, AID504355, AID504692, AID504904, AID504905]; format: functional
[2] = biological target: T1, Short transient receptor potential channel 4 (Mus musculus, UniProt Q9QUQ5); assay: mouse TRPC4 channel activators, dose response, cell-based, HEK293 TRPC4/mu-opioid, Fluo-4 calcium (AID 434937); format: functional
T1 sequence (Q9QUQ5 whole entry): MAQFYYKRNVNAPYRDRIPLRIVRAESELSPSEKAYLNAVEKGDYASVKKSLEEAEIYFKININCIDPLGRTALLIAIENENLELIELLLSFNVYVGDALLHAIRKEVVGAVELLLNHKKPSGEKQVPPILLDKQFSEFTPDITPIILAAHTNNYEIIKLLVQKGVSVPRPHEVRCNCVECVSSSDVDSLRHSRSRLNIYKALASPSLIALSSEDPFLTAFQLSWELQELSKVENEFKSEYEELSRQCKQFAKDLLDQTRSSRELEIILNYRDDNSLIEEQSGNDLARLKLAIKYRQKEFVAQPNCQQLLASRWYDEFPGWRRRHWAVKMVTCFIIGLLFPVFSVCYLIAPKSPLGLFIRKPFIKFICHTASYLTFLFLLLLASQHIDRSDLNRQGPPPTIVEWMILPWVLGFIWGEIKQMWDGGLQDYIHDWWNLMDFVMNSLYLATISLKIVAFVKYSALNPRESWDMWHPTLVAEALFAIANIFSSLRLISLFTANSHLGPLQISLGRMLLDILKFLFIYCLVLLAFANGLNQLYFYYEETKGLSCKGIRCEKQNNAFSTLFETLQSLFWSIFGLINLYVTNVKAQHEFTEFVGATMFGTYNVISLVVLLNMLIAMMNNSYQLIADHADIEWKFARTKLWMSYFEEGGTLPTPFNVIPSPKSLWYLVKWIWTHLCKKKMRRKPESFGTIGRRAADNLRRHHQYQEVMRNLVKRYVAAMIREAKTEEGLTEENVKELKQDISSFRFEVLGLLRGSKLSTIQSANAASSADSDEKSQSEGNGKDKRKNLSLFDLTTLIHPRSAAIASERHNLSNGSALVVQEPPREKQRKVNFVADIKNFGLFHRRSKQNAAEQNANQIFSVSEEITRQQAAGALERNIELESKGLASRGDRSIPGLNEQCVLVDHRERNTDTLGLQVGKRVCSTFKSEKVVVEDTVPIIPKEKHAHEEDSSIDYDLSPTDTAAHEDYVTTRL

[3] = biological target: Delta-type opioid receptor (Homo sapiens, UniProt P41143); assay: as §1, with “of OPRD1” for “of OPRM1”, “homodimerization. [Related pubchem assays (depositor defined):AID504326, AID504355, AID504692, AID504904, AID504905]” for “homodimerization.”; format: functional
[4] = biological target: T2, DNA repair and recombination protein RAD54-like (Homo sapiens, UniProt Q92698); assay: inhibitors of human RAD54 branch migration, confirmation, biochemical, fluorescence, cherry-picked samples, dose series (AID 651657); format: functional
T2 sequence (Q92698 whole entry): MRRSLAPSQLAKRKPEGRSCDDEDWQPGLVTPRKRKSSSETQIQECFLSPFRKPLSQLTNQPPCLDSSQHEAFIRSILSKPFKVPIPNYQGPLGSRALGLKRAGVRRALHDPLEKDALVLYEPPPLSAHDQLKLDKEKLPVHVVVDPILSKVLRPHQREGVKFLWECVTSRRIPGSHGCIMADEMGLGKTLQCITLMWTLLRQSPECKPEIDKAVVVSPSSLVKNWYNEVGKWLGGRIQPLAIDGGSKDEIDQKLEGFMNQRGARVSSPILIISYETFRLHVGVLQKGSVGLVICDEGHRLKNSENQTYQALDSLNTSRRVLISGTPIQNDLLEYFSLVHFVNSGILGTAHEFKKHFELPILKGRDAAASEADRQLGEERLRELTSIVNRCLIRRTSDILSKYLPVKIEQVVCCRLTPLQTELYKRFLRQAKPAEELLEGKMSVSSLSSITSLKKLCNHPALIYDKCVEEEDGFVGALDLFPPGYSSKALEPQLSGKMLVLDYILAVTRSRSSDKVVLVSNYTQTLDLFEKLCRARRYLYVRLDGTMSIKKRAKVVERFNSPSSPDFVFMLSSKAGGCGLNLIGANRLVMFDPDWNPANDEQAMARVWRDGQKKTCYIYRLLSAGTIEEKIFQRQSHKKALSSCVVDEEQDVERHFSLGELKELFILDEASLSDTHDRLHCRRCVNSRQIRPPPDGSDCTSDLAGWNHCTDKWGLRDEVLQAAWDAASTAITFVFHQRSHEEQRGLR

[5] = inhibitors of intracellular T. cruzi replication, confirmation, NIH3T3 host cells, beta-gal luminescence (AID 2044); format: functional, cell-based;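 further: intracellular parasites grown in NIH/3T3 mouse fibroblasts as host cells; luminescent beta-galactosidase reporter signal from transgenic T. cruzi replicating inside host cells; inhibitors lower the luminescence signal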
[6] = cytotoxicity toward NIH3T3 fibroblasts, dose response, counter-screen, cell-based, ATP luminescence, mouse fibroblasts (AID 2010); format: functional;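 further: cells exposed to compound for about 90 hours before reading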
[7] = HeLa cell cytotoxicity, dose response, cytotoxicity control for MgcRacGAP inhibitor project (AID 624300); format: functional
[8] = biological target: T3, Rac GTPase-activating protein 1 (Homo sapiens, UniProt Q9H0H5); assay: MgcRacGAP GTPase-activating activity inhibitors, confirmation, biochemical, ADP Hunter fluorescence, primary and confirmatory (AID 624330); format: functional
T3 sequence (Q9H0H5 whole entry): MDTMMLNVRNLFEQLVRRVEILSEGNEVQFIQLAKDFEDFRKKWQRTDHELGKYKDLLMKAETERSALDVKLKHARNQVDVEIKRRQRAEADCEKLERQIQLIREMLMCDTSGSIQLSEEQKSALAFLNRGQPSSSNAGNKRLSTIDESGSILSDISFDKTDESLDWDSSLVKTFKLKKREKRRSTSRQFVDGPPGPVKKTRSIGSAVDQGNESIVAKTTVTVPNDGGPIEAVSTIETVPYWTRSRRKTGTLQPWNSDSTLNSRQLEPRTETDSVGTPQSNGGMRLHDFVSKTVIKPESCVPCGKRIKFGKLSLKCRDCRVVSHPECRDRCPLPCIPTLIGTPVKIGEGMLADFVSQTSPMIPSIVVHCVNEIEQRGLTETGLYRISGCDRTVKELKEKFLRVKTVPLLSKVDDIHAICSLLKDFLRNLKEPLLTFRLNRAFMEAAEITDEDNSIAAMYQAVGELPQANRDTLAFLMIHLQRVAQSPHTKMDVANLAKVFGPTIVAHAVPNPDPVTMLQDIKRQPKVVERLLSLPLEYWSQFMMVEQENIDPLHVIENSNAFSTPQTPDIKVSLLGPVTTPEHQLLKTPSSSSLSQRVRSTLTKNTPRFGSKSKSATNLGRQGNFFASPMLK

Chain of Delta-type opioid receptor (P41143 whole entry): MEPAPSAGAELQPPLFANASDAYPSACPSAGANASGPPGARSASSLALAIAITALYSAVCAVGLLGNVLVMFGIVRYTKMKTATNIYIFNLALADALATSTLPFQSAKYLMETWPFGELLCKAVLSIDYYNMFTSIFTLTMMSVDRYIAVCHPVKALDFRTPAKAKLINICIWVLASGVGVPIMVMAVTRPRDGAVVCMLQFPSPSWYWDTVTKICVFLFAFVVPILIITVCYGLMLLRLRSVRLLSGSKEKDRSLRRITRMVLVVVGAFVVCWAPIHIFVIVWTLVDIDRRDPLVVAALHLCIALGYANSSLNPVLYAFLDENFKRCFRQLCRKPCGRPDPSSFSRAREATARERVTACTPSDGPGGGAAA
Chain of 5-hydroxytryptamine receptor 5A (P47898 whole entry): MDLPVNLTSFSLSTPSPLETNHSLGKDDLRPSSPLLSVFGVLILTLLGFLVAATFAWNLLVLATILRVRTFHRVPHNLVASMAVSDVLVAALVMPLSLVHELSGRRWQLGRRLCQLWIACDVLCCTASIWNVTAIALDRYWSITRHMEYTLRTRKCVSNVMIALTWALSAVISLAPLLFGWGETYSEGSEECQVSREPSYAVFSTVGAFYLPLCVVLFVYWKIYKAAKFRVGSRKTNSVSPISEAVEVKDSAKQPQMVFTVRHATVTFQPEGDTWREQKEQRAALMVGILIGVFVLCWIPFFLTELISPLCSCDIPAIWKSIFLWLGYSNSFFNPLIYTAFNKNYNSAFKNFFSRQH
Chain of Mu-type opioid receptor (P35372 whole entry): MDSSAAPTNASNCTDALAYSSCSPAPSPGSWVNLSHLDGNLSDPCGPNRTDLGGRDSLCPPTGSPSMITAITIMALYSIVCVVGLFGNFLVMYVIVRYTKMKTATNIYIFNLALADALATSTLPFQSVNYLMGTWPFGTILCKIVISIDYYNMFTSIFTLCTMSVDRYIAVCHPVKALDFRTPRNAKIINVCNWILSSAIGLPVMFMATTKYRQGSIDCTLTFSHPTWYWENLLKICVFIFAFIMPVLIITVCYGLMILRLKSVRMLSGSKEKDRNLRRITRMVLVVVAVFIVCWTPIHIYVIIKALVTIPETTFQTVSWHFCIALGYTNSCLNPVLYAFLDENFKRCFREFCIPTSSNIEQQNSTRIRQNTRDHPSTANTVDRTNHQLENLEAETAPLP

SMILES | EC50 (Mu-type opioid receptor) | EC50 [1] | EC50 [3] | further results
CCC1(C)CC(CCNCc2ccc(N(C)C)cc2)(c2ccc(F)cc2)CCO1 (stereo not given) | 29.2 µM (inactive) | > 92.3 µM (inactive) | > 92.3 µM (inactive) | EC50 [2]: 5.96 µM (active)
OCC1(CCc2ccccc2)CCN(Cc2ccccc2Cl)CC1 | 67.6 µM (inactive) | > 92.4 µM (inactive) | > 92.4 µM (inactive) | –
Cc1c(CN(C)C)c2c(n1C)C(=O)c1ccc(Br)cc1-2 | – | – | – | AC50 [4]: 11.8 µM (active)
CCOC(=O)C1(CCOc2ccccc2)CCN(Cc2cccn2-c2cccnc2)CC1 | 17.5 µM (inactive) | > 92.5 µM (inactive) | > 92.5 µM (inactive) | EC50 [5]: 2.94 µM (active); EC50 [6]: > 30 µM (not active)
Cc1ccc(Cl)c(OCCCN(C)Cc2ccccc2)c1 | – | – | – | CC50 [7]: 100 µM (active); IC50 [8]: 165 µM (active)
